Assay [1] deals with human norepinephrine transporter (NET) (Homo sapiens (Human), UniProt P23975). The experiment in a line: Binding assay to human norepinephrine transporter (NET) ([3H]-Nisoxetin). Conditions: Table 2, dual compounds; [3H]-Nisoxetin binding. In outline: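 NET-enriched membranes (5 μg) incubated with 5 nM [3H]-nisoxetin in 50 mM Tris-HCl, 120 mM NaCl, 5 mM KCl, pH 7.4, 60 min at 4 °C. Bound ligand separated by filtration on PEI-soaked GF/C and counted by scintillation; nonspecific binding defined with 1 μM competitor.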
Sequence of human norepinephrine transporter (NET) (P23975 whole entry): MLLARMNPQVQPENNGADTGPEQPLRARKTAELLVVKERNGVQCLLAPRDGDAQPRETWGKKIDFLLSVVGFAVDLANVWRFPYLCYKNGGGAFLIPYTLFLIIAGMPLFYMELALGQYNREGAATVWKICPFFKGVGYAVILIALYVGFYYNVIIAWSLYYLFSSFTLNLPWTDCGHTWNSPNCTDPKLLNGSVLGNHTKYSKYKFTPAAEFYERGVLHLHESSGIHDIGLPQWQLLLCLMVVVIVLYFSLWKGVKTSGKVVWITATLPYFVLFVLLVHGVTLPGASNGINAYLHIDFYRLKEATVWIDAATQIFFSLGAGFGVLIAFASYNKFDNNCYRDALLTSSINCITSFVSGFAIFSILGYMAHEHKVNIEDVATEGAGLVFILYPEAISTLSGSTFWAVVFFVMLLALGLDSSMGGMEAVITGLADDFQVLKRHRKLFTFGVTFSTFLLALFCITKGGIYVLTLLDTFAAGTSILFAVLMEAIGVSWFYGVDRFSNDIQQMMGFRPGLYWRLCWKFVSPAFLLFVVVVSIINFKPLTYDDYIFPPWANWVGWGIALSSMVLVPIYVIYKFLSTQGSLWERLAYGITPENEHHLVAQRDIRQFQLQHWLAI

Assay [2] deals with human α2δ-1 subunit of Cav2.2 calcium channel (Homo sapiens (Human), UniProt P54289). The experiment in a line: Binding assay to human α2δ-1 subunit of Cav2.2 calcium channel ([3H]-Gabapentin). Conditions: read-out: Ki (nM) α2δ-1. The essentials: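 Radioactivity on dried GF/C filters quantified by scintillation after filtration and three cold Tris-HCl (pH 7.4) washes. Incubation ran 60 min at 27° C with [3H]-gabapentin; 10 μM pregabalin gave nonspecific binding.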
Sequence of human α2δ-1 subunit of Cav2.2 calcium channel (P54289 25-1103): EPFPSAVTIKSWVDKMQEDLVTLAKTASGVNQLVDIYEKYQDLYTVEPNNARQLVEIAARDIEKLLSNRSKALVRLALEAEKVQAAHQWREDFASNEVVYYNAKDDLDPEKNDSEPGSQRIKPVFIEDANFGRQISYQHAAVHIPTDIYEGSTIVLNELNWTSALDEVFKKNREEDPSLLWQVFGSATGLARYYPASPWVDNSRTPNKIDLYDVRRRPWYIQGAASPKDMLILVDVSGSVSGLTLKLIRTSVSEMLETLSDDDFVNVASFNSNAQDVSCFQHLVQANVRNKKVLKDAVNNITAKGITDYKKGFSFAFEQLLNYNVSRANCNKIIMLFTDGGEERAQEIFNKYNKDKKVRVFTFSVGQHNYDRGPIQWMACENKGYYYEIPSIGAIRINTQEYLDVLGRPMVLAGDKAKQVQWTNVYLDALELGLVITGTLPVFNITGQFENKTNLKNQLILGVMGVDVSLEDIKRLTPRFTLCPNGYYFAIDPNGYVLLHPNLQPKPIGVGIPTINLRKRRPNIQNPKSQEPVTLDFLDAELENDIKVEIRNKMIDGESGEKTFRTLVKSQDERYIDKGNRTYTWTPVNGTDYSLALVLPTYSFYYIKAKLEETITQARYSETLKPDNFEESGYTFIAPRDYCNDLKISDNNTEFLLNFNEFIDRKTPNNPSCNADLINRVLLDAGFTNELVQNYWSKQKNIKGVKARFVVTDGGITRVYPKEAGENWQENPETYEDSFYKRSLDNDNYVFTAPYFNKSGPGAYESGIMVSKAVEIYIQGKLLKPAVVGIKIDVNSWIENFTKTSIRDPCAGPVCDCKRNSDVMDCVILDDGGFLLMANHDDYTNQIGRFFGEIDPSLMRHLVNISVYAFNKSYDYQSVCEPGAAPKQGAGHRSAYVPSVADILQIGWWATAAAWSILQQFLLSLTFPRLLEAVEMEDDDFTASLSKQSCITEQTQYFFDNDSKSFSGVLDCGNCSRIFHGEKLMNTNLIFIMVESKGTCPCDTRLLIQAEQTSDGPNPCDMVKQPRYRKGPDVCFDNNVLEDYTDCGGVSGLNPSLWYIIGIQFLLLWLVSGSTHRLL

[3] abbreviates: Table 2, dual compounds, [3H]-Gabapentin binding.
[4] abbreviates: binding to α2δ-1, [3H]-Gabapentin.

Broadly, the Ki is the equilibrium dissociation constant of an inhibitor or competing ligand from its target.

Like-named read-outs stand apart in the source and are kept apart here.

For `CCc1ncc2c(n1)N(C)CCN(Cc1ccc(OC(CCNC)c3ccccc3)cc1)C2=O` (stereo not drawn) [Example 426, 2-ethyl-9-methyl-6-(4-(3-(methylamino)-1-phenylpropoxy)benzyl)-6,7,8,9-tetrahydro-5H-pyrimido[4,5-e][1,4]diazepin-5-one], the Ki in assay [1] is below 100 nM; in assay [2] (setting [3]), 500 to 3000 nM; in assay [2] (setting [4]) it was 500 to 3000 nM.
For the compound `CNCCC(Oc1ccc(CN2CCN(C)c3ncncc3C2=O)cc1)c1ccccc1` (stereo not drawn) [Example 430, 9-methyl-6-(4-(3-(methylamino)-1-phenylpropoxy)benzyl)-6,7,8,9-tetrahydro-5H-pyrimido[4,5-e][1,4]diazepin-5-one], the Ki is below 100 nM in assay [1], 500 to 3000 nM in assay [2] (setting [3]) and 500 to 3000 nM in assay [2] (setting [4]).
Consider `CNCC[C@H](Oc1ccc(CN2CCN(C)c3ncncc3C2=O)cc1)c1ccccc1` [Example 433, (S)-9-methyl-6-(4-(3-(methylamino)-1-phenylpropoxy)benzyl)-6,7,8,9-tetrahydro-5H-pyrimido[4,5-e][1,4]diazepin-5-one], for which the Ki in assay [1] was below 100 nM; in assay [2] (setting [3]) it was 500 to 3000 nM; in assay [2] (setting [4]), 500 to 3000 nM.
Turning to `CNCC[C@@H](Oc1ccc(CN2CCN(C)c3ncncc3C2=O)cc1)c1ccccc1` [Example 434, (R)-9-methyl-6-(4-(3-(methylamino)-1-phenylpropoxy)benzyl)-6,7,8,9-tetrahydro-5H-pyrimido[4,5-e][1,4]diazepin-5-one], the Ki in assay [1] is 100 to 500 nM; in assay [2] (setting [3]) it was above 3000 nM; in assay [2] (setting [4]), above 3000 nM.
For `CCNc1ncc2c(n1)N(C)CCN(c1cccc(-c3nnc(CN4CCC(c5cccc(O)c5)(N(C)C)CC4)o3)c1)C2=O` [Example 442, 6-(3-(5-((4-(dimethylamino)-4-(3-hydroxyphenyl)piperidin-1-yl)methyl)-1,3,4-oxadiazol-2-yl)phenyl)-2-(ethylamino)-9-methyl-6,7,8,9-tetrahydro-5H-pyrimido[4,5-e][1,4]diazepin-5-one], the Ki in assay [1], in assay [2] (setting [3]) and in assay [2] (setting [4]) was below 100 nM in each case.

The record behind these values is patent publication US10590140B2, “Tetrahydropyrimidodiazepine and dihydropyridodiazepine compounds for treating pain and pain related conditions” (ESTEVE PHARMACEUTICALS, S.A., priority 2016, dated 2020).
